Data reported in PubChem BioAssay AID330 (DTP/NCI, 2004).
Where “and” joins values, the source holds several entries; their conditions need not be identical. Identical values can stand only once. Toxic doses and inconclusive results are not listed. The calls were made as follows: active = survival T/C of 150% or more; inactive = T/C below 125% in these data. Square brackets hold non-standard residues; d marks the D form. Peptide text beside a SMILES is read from it. * marks the point of attachment. ξ: configuration not given here. Cbz = O=C(OCc1ccccc1)*; OBn = c1ccc(CO*)cc1; ξS = NC(CO)C(=O)O

Tested on: P388 leukemia ip, CD2F1 mice, survival T/C
Test: NCI In Vivo Anticancer Drug Screen. Data for tumor model P388 Leukemia (intraperitoneal) in CD2F1 (CDF1) mice
Details: endpoint: median survival time, higher = longer survival
In short: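 Mice carrying the transplanted tumor received test compound or vehicle. Survival was recorded in each group, and the value is the treated-group measurement divided by that of the vehicle-treated control group.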

[1] = dose: 50.0 mg/kg/injection, schedule: Q01DX009 (ip), vehicle: saline
[2] = dose: 100.0 mg/kg/injection, schedule: Q01DX009 (ip), vehicle: saline
[3] = dose: 200.0 mg/kg/injection, schedule: Q01DX009 (ip), vehicle: saline
[4] = dose: 50.0 mg/kg/injection, schedule: Q01DX005 (ip), vehicle: saline
[5] = dose: 100.0 mg/kg/injection, schedule: Q01DX005 (ip), vehicle: saline
[6] = dose: 25.0 mg/kg/injection, schedule: Q01DX009 (ip), vehicle: saline with Tween-80
[7] = dose: 50.0 mg/kg/injection, schedule: Q01DX009 (ip), vehicle: Klucel (hydroxypropylcellulose) (HPC)
[8] = dose: 50.0 mg/kg/injection, schedule: Q01DX009 (ip), vehicle: saline with Tween-80
[9] = dose: 100.0 mg/kg/injection, schedule: Q01DX009 (ip), vehicle: Klucel (hydroxypropylcellulose) (HPC)
[10] = dose: 100.0 mg/kg/injection, schedule: Q01DX009 (ip), vehicle: saline with Tween-80
[11] = dose: 200.0 mg/kg/injection, schedule: Q01DX009 (ip), vehicle: Klucel (hydroxypropylcellulose) (HPC)
[12] = dose: 200.0 mg/kg/injection, schedule: Q01DX009 (ip), vehicle: saline with Tween-80
[13] = dose: 60.0 mg/kg/injection, schedule: Q01DX005 (ip), vehicle: saline with Tween-80
[14] = dose: 120.0 mg/kg/injection, schedule: Q01DX005 (ip), vehicle: saline with Tween-80
[15] = dose: 25.0 mg/kg/injection, schedule: Q01DX005 (ip), vehicle: saline
[16] = dose: 240.0 mg/kg/injection, schedule: Q01DX005 (ip), vehicle: saline with Tween-80
[17] = dose: 100.0 mg/kg/injection, schedule: Q01DX001 (ip), vehicle: saline
[18] = dose: 200.0 mg/kg/injection, schedule: Q01DX001 (ip), vehicle: saline
[19] = dose: 400.0 mg/kg/injection, schedule: Q01DX001 (ip), vehicle: saline
[20] = dose: 50.0 mg/kg/injection, schedule: Q01DX005 (ip), vehicle: Klucel (hydroxypropylcellulose) (HPC)
[21] = dose: 100.0 mg/kg/injection, schedule: Q01DX005 (ip), vehicle: Klucel (hydroxypropylcellulose) (HPC)

Measured: T/C

Clc1cccnc1Cl
inactive: [1] 100 % of control and 110 % of control | [2] 103 % of control and 105 % of control | [3] 99 % of control and 106 % of control | dose: 400.0 mg/kg/injection, schedule: Q01DX009 (ip), vehicle: saline 97 % of control

CC(O)(CO)CC(C)(O)CO (configuration not stated)
inactive: [4] 97 % of control | [5] 105 % of control | dose: 200.0 mg/kg/injection, schedule: Q01DX005 (ip), vehicle: saline 103 % of control

c1cc[n+](CCC[n+]2ccccc2)cc1
inactive: [1] 98 % of control | [2] 97 % of control | [3] 100 % of control

O=C(Nc1ccccc1O)C1C(=O)C(=O)N(c2ccccc2O)C1=O (configuration not stated)
inactive: [6] 97 % of control | [7] 101 % of control and 105 % of control and 107 % of control | [8] 105 % of control | [9] 99 % of control and 101 % of control (2×) | [10] 97 % of control | [11] 106 % of control | [12] 102 % of control

Cc1ccc(/C=C/C(=N/Nc2ccccc2)C(C)CN(C)C)cc1 (configuration not stated)
inactive: [13] 100 % of control | [14] 89 % of control

CC(=O)C[n+]1ccccc1Oc1ccccc1
inactive: [15] 93 % of control | [4] 96 % of control

O=C1CN(c2ccccc2)C(=O)CN1/N=C/c1ccc(Cl)cc1
inactive: [8] 91 % of control | [10] 99 % of control | [12] 102 % of control

OCc1ccc(Cl)cc1Cl
inactive: [8] 104 % of control | [10] 95 % of control | [12] 109 % of control

S=c1nc(-c2nc(=S)[nH]c3c2CCCCC3)c2c([nH]1)CCCCC2
inactive: dose: 60.0 mg/kg/injection, schedule: Q01DX005 (ip), vehicle: Klucel (hydroxypropylcellulose) (HPC) 97 % of control | dose: 120.0 mg/kg/injection, schedule: Q01DX005 (ip), vehicle: Klucel (hydroxypropylcellulose) (HPC) 96 % of control | dose: 240.0 mg/kg/injection, schedule: Q01DX005 (ip), vehicle: Klucel (hydroxypropylcellulose) (HPC) 92 % of control

N#Cc1c2ccccc2cc[n+]1Cc1ccc2c(c1)OCO2
inactive: dose: 3.12 mg/kg/injection, schedule: Q04DX002 (ip), vehicle: Klucel (hydroxypropylcellulose) (HPC) 105 % of control | dose: 6.25 mg/kg/injection, schedule: Q04DX002 (ip), vehicle: Klucel (hydroxypropylcellulose) (HPC) 104 % of control | dose: 12.5 mg/kg/injection, schedule: Q04DX002 (ip), vehicle: Klucel (hydroxypropylcellulose) (HPC) 100 % of control and 106 % of control

CCN(CC)C(=O)c1cc(OC)c(C(=O)N(CC)CC)cc1OC
inactive: [13] 100 % of control | [14] 108 % of control | [16] 101 % of control

O=C1c2ccccc2C(=O)N1CC[P+](Cc1ccccc1)(Cc1ccccc1)Cc1ccccc1
inactive: dose: 0.78 mg/kg/injection, schedule: Q01DX009 (ip), vehicle: other 105 % of control | dose: 1.56 mg/kg/injection, schedule: Q01DX009 (ip), vehicle: other 97 % of control | dose: 3.13 mg/kg/injection, schedule: Q01DX009 (ip), vehicle: other 97 % of control | dose: 6.25 mg/kg/injection, schedule: Q01DX009 (ip), vehicle: other 106 % of control | dose: 12.5 mg/kg/injection, schedule: Q01DX009 (ip), vehicle: other 99 % of control and 90 % of control | dose: 25.0 mg/kg/injection, schedule: Q01DX009 (ip), vehicle: other 112 % of control and 91 % of control | dose: 50.0 mg/kg/injection, schedule: Q01DX009 (ip), vehicle: other 105 % of control | dose: 100.0 mg/kg/injection, schedule: Q01DX009 (ip), vehicle: other 89 % of control

CCCCSc1n[nH]c(C2CCC(=O)N2Cc2ccccc2)n1 (configuration not stated)
inactive: [13] 100 % of control | [14] 93 % of control | [16] 91 % of control

NC(=S)c1cccc(/C=N/Nc2ccc([N+](=O)[O-])cc2[N+](=O)[O-])c1
inactive: [17] 99 % of control | [18] 105 % of control | [19] 96 % of control

CC(=O)NCCSSCc1ccccc1CS(=O)O
inactive: dose: 25.0 mg/kg/injection, schedule: Q01DX005 (ip), vehicle: suspension in saline 104 % of control | dose: 50.0 mg/kg/injection, schedule: Q01DX005 (ip), vehicle: suspension in saline 106 % of control | dose: 100.0 mg/kg/injection, schedule: Q01DX005 (ip), vehicle: suspension in saline 113 % of control

CC(=O)Nc1n[nH]c(C)n1
inactive: [15] 97 % of control | [4] 106 % of control | [5] 97 % of control

O=C1C(Cl)=C(Nc2cc(Cl)ccc2Cl)C(=O)c2ccccc21
inactive: [13] 98 % of control | [14] 102 % of control | [16] 101 % of control

Cc1cccc(/C=N/NC(N)=S)n1
inactive: dose: 15.0 mg/kg/injection, schedule: Q04DX002 (ip), vehicle: saline with Tween-80 105 % of control | dose: 30.0 mg/kg/injection, schedule: Q04DX002 (ip), vehicle: saline with Tween-80 106 % of control | dose: 60.0 mg/kg/injection, schedule: Q04DX002 (ip), vehicle: saline with Tween-80 106 % of control

O=C(CNC(=O)C(CO)NC(=O)OCc1ccccc1)NCC(=O)OCc1ccccc1 (stereo not drawn) (Cbz-[ξS]-Gly-Gly-OBn)
inactive: [20] 101 % of control | [21] 99 % of control | dose: 200.0 mg/kg/injection, schedule: Q01DX005 (ip), vehicle: Klucel (hydroxypropylcellulose) (HPC) 97 % of control

COc1cc(/C=N\N=c2\sc3ccccc3n2C)ccc1OCCO
inactive: [13] 92 % of control | [14] 91 % of control | [16] 91 % of control

CN1CCN=C1c1ccc(NC(=O)c2ccc(C(=O)Nc3ccc(C4=NCCN4C)cc3)c([N+](=O)[O-])c2)cc1
inactive: dose: 0.78 mg/kg/injection, schedule: Q01DX005 (ip), vehicle: saline with Tween-80 110 % of control and 113 % of control | dose: 1.56 mg/kg/injection, schedule: Q01DX005 (ip), vehicle: saline with Tween-80 112 % of control and 114 % of control | dose: 3.13 mg/kg/injection, schedule: Q01DX005 (ip), vehicle: saline with Tween-80 124 % of control

N[C@H](CCOc1ccc(/C(=N/O)C(=O)N[C@H]2CN([C@@H](C(=O)O)c3ccc(O)cc3)C2=O)cc1)C(=O)O
inactive: dose: 50.0 mg/kg/injection, schedule: Q01DX005 (ip), vehicle: water 101 % of control | dose: 100.0 mg/kg/injection, schedule: Q01DX005 (ip), vehicle: water 97 % of control | dose: 200.0 mg/kg/injection, schedule: Q01DX005 (ip), vehicle: water 105 % of control

COc1ccc(NC(C)=NC(C)C)cc1
inactive: dose: 12.5 mg/kg/injection, schedule: Q01DX009 (ip), vehicle: saline with Tween-80 101 % of control and 88 % of control | [6] 92 % of control | dose: 50.0 mg/kg/injection, schedule: Q01DX009 (ip), vehicle: saline + Tween-80 + alcohol 98 % of control | [8] 100 % of control and 101 % of control

Cc1ccc(S(=O)(=O)NN=c2c3ccccc3c3nc4ccccc4nc3c3ccccc23)cc1
inactive: [20] 90 % of control | [21] 98 % of control

Cc1ccc(C(=O)/C(N)=C/c2ccccn2)cc1
inactive: [17] 107 % of control | [18] 105 % of control | [19] 101 % of control

Cc1cc(C)n(C(N)=NC(=O)c2ccc([N+](=O)[O-])cc2)n1
inactive: [7] 99 % of control | [9] 101 % of control | [11] 106 % of control

OC(CNc1c2ccccc2nc2ccccc12)COc1c2ccccc2nc2ccccc12 (configuration not stated)
inactive: [13] 95 % of control | [14] 92 % of control | [16] 100 % of control

Cc1cccc(NC(=O)c2ccccc2)n1
inactive: dose: 12.5 mg/kg/injection, schedule: Q04DX003 (ip), vehicle: saline 104 % of control | dose: 25.0 mg/kg/injection, schedule: Q04DX003 (ip), vehicle: saline 100 % of control | dose: 50.0 mg/kg/injection, schedule: Q04DX003 (ip), vehicle: saline 90 % of control
